Results on 8 compounds are retold here after patent US20240124460A1, “METHODS AND COMPOSITIONS FOR TARGETED PROTEIN DEGRADATION” (Ranok Therapeutics (Hangzhou) Co. Ltd., priority 2020, published 2024).

Assay [1] deals with T1, HSP90α protein (Homo sapiens, UniProt P07900).
T1 construct: purchased BPS Bioscience #50298
Briefly: HSP90α-binding FP (FITC) assay. Particulars: FP competition with FITC-geldanamycin. The protocol:
Binding of test compounds to HSP90α protein was measured by fluorescent polarization (FP) using the HSP90α (N-terminal) Assay Kit (BPS Bioscience, #50298), following the manufacturer's instructions, except as noted. Fluorescently labeled HSP90-binding compounds, either the provided FITC-geldanamycin (5 nM final concentration) or RNK04010, a triazolone-based HSP90 binding small molecule labeled with BODIPY through a piperazine-phenyl linker (5 nM final concentration) were employed. A 2.5-fold serial dilution of each test compound ranging from 20 μM to 5.2 nM was assayed for binding to HSP90α. After the final step of adding HSP90α protein to each assay well, plates were mixed by brief shaking, incubated at 25° C. for 120 min for FITC-geldanamycin or 300 min for RNK04010, and fluorescence was measured using a PerkinElmer EnVision Plate Reader.

Assay [2] deals with U-87 MG human glioblastoma. In words: U87 MG CCK-8 proliferation assay. Type of assay: cell-based. Particulars: U-87 MG cells, read-out: U87MG CCK-8. The procedure, abridged: (§1)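 Cells grown per ATCC recommendations were treated with 3-fold serial compound dilutions from 20 μM to 1.02 nM. CCK-8 absorbance was converted to % inhibition against DMSO-treated cells, with cell-free medium containing DMSO as the blank.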
(Formazan colour is commonly taken as a measure of viable cells.)

The test system of assay [3] is MV-4-11 human acute myeloid leukemia. Briefly: MV-4-11 CCK-8 proliferation assay. Type of assay: cell-based. Particulars: MV-4-11 cells, 72 hr. The procedure, abridged: as §1
The target of assay [4] is T2, MAPK7 (Homo sapiens, UniProt Q13164). Briefly: MAPK7 Western blot protein degradation assay in U-87 MG cells. Type of assay: cell-based. Further details: U-87 MG human glioblastoma cells, which express MAPK7; endogenous in cells; host or cells: U-87 MG. Particulars: 48 hr. The protocol: U-87 MG human glioblastoma cells were seeded in 6- or 12-well tissue culture plates, and after 1 hr, test compounds were added at various concentrations and incubated at 37° C./5% CO2 for 48 hr. Cells were then washed with cold PBS, aspirated and cold RIPA buffer containing a protease/phosphatase inhibitor cocktail was added to lyse cells. After centrifugation, the total protein concentrations of cell lysates were determined using the BCA protein assay. Samples were normalized for equivalent protein concentrations, 5×SDS-PAGE loading buffer added and denatured at 100° C. for 10 min. 20 μl of each sample/well was loaded on a SDS-PAGE gel and electrophoresed for 20 min at 80 V, then 120 V for 1.5 hr. Gels were then electroblotted to nitrocellulose membranes using a wet-transfer method at 250 mA for 2.5 hr. Membranes were incubated with blocking buffer for 1 hr and washed 3 times with TBST for 5 min. Membranes were then incubated with anti-MAPK7 (anti-ERK5; Cell Signaling Technology, #12950) and anti-3-Actin (Cell Signaling Technology, #3700) monoclonal antibodies diluted in blocking buffer at 4° C. overnight per the manufacturer's recommendations. After washing 3 times, blots were incubated with appropriately labeled secondary antibodies for 1 hr at room temperature and washed again. Fluorescence imaging and quantitation was performed using a LI-COR Odyssey. Results was analyzed using GraphPad Prism 7 software.
T2 sequence (Q13164 whole entry): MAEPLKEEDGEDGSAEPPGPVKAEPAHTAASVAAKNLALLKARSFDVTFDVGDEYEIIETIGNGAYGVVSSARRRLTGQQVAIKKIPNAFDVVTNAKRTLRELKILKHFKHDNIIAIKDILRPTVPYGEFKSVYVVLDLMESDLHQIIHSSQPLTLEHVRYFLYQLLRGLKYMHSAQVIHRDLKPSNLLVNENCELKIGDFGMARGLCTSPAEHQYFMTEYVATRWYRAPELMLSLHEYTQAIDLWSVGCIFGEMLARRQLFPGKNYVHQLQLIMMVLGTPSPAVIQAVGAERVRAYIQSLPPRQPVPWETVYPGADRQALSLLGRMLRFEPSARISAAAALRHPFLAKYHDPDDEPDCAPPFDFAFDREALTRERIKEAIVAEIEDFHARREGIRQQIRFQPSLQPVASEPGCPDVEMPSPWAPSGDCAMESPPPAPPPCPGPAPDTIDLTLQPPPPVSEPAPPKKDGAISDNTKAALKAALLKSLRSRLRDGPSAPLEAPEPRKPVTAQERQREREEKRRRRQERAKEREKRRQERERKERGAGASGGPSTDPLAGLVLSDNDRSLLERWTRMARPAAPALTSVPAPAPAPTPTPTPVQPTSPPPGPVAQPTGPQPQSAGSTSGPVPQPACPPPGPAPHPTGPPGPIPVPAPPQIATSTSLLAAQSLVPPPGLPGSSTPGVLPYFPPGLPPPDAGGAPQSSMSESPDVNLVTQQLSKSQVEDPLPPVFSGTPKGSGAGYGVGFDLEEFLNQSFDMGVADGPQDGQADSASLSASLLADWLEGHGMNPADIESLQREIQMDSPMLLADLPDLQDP

A further assay concerns ERBB2. In words: ERBB2 (HER2) flow cytometry protein degradation assay in BT-474 cells. Type of assay: cell-based, human. Particulars: DC50, BT-474 cells, 24 hr. The essentials:
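BT-474 cells trypsinised after compound treatment and stained with PE-conjugated anti-ERBB2 antibody, 30 min at 25° C in the dark, then fixed in 1% paraformaldehyde for flow cytometry. % inhibition = 100−(D−B)/(S−B)*100, using treated, untreated-stained and unstained cell fluorescence.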
Background: Flow cytometry measures light scatter and fluorescence of single cells or particles in a stream.

For assay [5], the target named is T1, HSP90α protein. In words: HSP90α-binding FP (BODIPY) assay. As to conditions: FP competition with BODIPY-labeled RNK04010. The procedure, abridged: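 Fluorescence polarization measured competition with N-terminal human HSP90α, using either FITC-geldanamycin or BODIPY-labelled triazolone RNK04010 as tracer (5 nM final each). Compounds were tested in 2.5-fold dilutions from 20 μM to 5.2 nM, with incubation at 25 °C for 120 min (FITC) or 300 min (BODIPY).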

Assay [6] addresses T2, MAPK7. In words: MAPK7 kinase assay (ADP-Glo). Format: biochemical. Also on record: purchased Carna Biosciences #04-146. Particulars: ATP 340 μM. The protocol:
The inhibition of MAPK7 kinase activity by test compounds was measured by the ADP-Glo Kinase Assay (Promega, #V6930), following the manufacturer's instructions, except as noted. 3-fold serial dilutions of each test compound were prepared ranging from 50 μM to 2.54 nM. Also, as a positive control, a 4-fold serial dilution of the MAPK7 inhibitor, XMD17-109 (MedChemExpress, #HY-15665) was prepared ranging from 10 μM to 0.04 nM. In brief, in 384-well plates, test compounds were added to the kinase reaction mix containing recombinant MAPK7 protein (Carna Biosciences, #04-146; 20 nM final concentration), myelin basic protein (SignalChem Biotech, #M42-54G; 0.1 mg/ml final concentration) and ATP (340 μM final concentration), then mixed by shaking and incubated with ADP-Glo Reagent and Kinase Detection Reagent. Luminescence was measured on a BioTek plate reader.
Lumpositive: The average ratio for 10 wells of positive controls (10 μM XMD17-109) across the plate.
Lumvehicle: The average ratio for 10 wells of negative controls (0.5% DMSO) across the plate.

Where two headings read alike, the source gives them in different places.

`CCOc1cc(N2CCC(C(=O)NCCOCc3ccc(-n4c(O)nnc4-c4cc(C(C)C)c(O)cc4O)cc3)CC2)ccc1Nc1ncc2c(n1)N(C)c1ccccc1C(=O)N2C` [Compound 005, N-(2-((4-(3-(2,4-dihydroxy-5-isopropylphenyl)-5-hydroxy-4H-1,2,4-triazol-4-yl)benzyl)oxy)ethyl)-1-(4-((5,11-dimethyl-6-oxo-6,11-dihydro-5H-benzo[e]pyrimido[5,4-b][1,4]diazepin-2-yl)amino)-3-ethoxyphenyl)piperidine-4-carboxamide] gave an IC50 at HSP90α protein [1] of 0.1 to 1 µM. Also, the EC50 in assay [2] (Homo sapiens, U-87 MG, 72 h) was under 0.1 µM; in assay [3] (Homo sapiens, MV4-11), under 0.1 µM. In addition, the “MAPK7 degradation (30 nM)” value on MAPK7 [4] (30 nM) is listed as “C (< 33% degradation)”. Further, on MAPK7 [4] (100 nM), the “MAPK7 degradation (100 nM)” value was “C (< 33% degradation)”. Besides, the “MAPK7 degradation (1000 nM)” value on MAPK7 [4] (1000 nM) was “A (>66% degradation)”. In addition, the ERBB2 degradation entry with ERBB2 is reported as “B (DC50 = 100-1000 nM)”.
Regarding “(1R,4R)-4-((2-cyano-5-(6,6-dimethyl-4-oxo-3-(trifluoromethyl)-4,5,6,7-tetrahydro-1H-indazol-1-yl)phenyl)amino)cyclohexyl (2-(2-(1-(4-((5,11-dimethyl-6-oxo-6,11-dihydro-5H-benzo[e]pyrimido[5,4-b][1,4]diazepin-2-yl)amino)-3-ethoxyphenyl)piperidine-4-carboxamido)ethoxy)ethyl)carbamate [Compound 109]”, the EC50 in assay [2] (72 hr) and in assay [3] was over 1 µM each time. For the same compound, the IC50 at HSP90α protein [5] and against MAPK7 [6] was over 1 µM in each case.
For the compound `CCNC(=O)c1nnc(-c2cc(CC)c(O)cc2O)n1-c1ccc(CN2CCN(CC3CCN(C(=O)C4CCN(c5ccc(N(CC)c6ncc7c(n6)N(S(C)(=O)=O)c6ccccc6C(=O)N7C)c(OCC)c5)CC4)CC3)CC2)cc1` [Compound 135, 4-(4-((4-((1-(1-(3-ethoxy-4-(ethyl(5-methyl-11-(methylsulfonyl)-6-oxo-6,11-dihydro-5H-benzo[e]pyrimido[5,4-b][1,4]diazepin-2-yl)amino)phenyl)piperidine-4-carbonyl)piperidin-4-yl)methyl)piperazin-1-yl)methyl)phenyl)-N-ethyl-5-(5-ethyl-2,4-dihydroxyphenyl)-4H-1,2,4-triazole-3-carboxamide], the EC50 is 0.1 to 1 µM in assay [2] (Homo sapiens, U-87 MG, 72 h) and under 0.1 µM in assay [3] (Homo sapiens, MV4-11). The results for the IC50 at HSP90α protein [5] and against MAPK7 [6] were under 0.1 µM and over 1 µM, respectively.
Consider `CCOc1cc(N2CCC(C(=O)N3CCC(CN4CCN(Cc5ccc(-n6c(O)nnc6-c6cc(C(C)C)c(O)cc6O)cc5)CC4)CC3)CC2)ccc1N(CC)c1ncc2c(n1)N(C)c1ccccc1C(=O)N2C` [Compound 133, 2-((4-(4-(4-((4-(4-(3-(2,4-dihydroxy-5-isopropylphenyl)-5-hydroxy-4H-1,2,4-triazol-4-yl)benzyl)piperazin-1-yl)methyl)piperidine-1-carbonyl)piperidin-1-yl)-2-ethoxyphenyl)(ethyl)amino)-5,11-dimethyl-5,11-dihydro-6H-benzo[e]pyrimido[5,4-b][1,4]diazepin-6-one], for which the EC50 in assay [2] (Homo sapiens, U-87 MG, 72 h) is 0.1 to 1 µM; in assay [3] (Homo sapiens, MV4-11) it was under 0.1 µM. Moreover, the figures for the IC50 at HSP90α protein [5] and at MAPK7 [6] were under 0.1 µM and over 1 µM, respectively.
`CCOc1cc(N2CCC(C(=O)N3CCC(COc4ccc(Nc5cc(-n6nc(C(F)(F)F)c7c6CC(C)(C)CC7=O)ccc5C(N)=O)cc4)CC3)CC2)ccc1Nc1ncc2c(n1)N(S(C)(=O)=O)c1ccccc1C(=O)N2C` [Compound 110, 4-(6,6-dimethyl-4-oxo-3-(trifluoromethyl)-4,5,6,7-tetrahydro-1H-indazol-1-yl)-2-((4-((1-(1-(3-ethoxy-4-((5-methyl-11-(methylsulfonyl)-6-oxo-6,11-dihydro-5H-benzo[e]pyrimido[5,4-b][1,4]diazepin-2-yl)amino)phenyl)piperidine-4-carbonyl)piperidin-4-yl)methoxy)phenyl)amino)benzamide]: the EC50 is over 1 µM in assay [2] (Homo sapiens, U-87 MG, 72 h) and over 1 µM in assay [3] (Homo sapiens, MV4-11). The 50% inhibitory concentration (IC50) on HSP90α protein [5] and against MAPK7 [6] was over 1 µM in each case.
As for `CCOc1cc(N2CCC(C(=O)NCCOCCNC(=O)O[C@H]3CC[C@H](Nc4cc(-n5nc(C(F)(F)F)c6c5CC(C)(C)CC6=O)ccc4C#N)CC3)CC2)ccc1Nc1ncc2c(n1)N(S(C)(=O)=O)c1ccccc1C(=O)N2C` [Compound 111, (1R,4R)-4-((2-((12-azanylidene)-l3-methyl)-5-(6,6-dimethyl-4-oxo-3-(trifluoromethyl)-4,5,6,7-tetrahydro-1H-indazol-1-yl)phenyl)amino)cyclohexyl (2-(2-(1-(3-ethoxy-4-((5-methyl-11-(methylsulfonyl)-6-oxo-6,11-dihydro-5H-benzo[e]pyrimido[5,4-b][1,4]diazepin-2-yl)amino)phenyl)piperidine-4-carboxamido)ethoxy)ethyl)carbamate], the EC50 in assay [2] (Homo sapiens, U-87 MG, 72 h) is over 1 µM; in assay [3] (Homo sapiens, MV4-11), over 1 µM. Besides, the half-inhibitory concentration (IC50) at HSP90α protein [5] and against MAPK7 [6] was over 1 µM in each case.
As to “(1R,4R)-4-((2-((12-azanylidene)-l3-methyl)-5-(6,6-dimethyl-4-oxo-3-(trifluoromethyl)-4,5,6,7-tetrahydro-1H-indazol-1-yl)phenyl)amino)cyclohexyl (2-(2-(1-(3-ethoxy-4-(ethyl(5-methyl-11-(methylsulfonyl)-6-oxo-6,11-dihydro-5H-benzo[e]pyrimido[5,4-b][1,4]diazepin-2-yl)amino)phenyl)piperidine-4-carboxamido)ethoxy)ethyl)carbamate [Compound 113]”, the EC50 in assay [2] (72 hr) and in assay [3] was over 1 µM in each case. The half-inhibitory concentration (IC50) on HSP90α protein [5] and on MAPK7 [6] was over 1 µM each time.
With `CCOc1cc(N2CCC(C(=O)N3CCC(CN4CCN(Cc5ccc(-n6c(C(=O)NC(C)C(F)(F)F)nnc6-c6cc(CC)c(O)cc6OC)cc5)CC4)CC3)CC2)ccc1Nc1ncc2c(n1)N(S(C)(=O)=O)c1ccccc1C(=O)N2C` (centres unmarked) [Compound 142, 4-(4-((4-((1-(1-(3-ethoxy-4-((5-methyl-11-(methylsulfonyl)-6-oxo-6,11-dihydro-5H-benzo[e]pyrimido[5,4-b][1,4]diazepin-2-yl)amino)phenyl)piperidine-4-carbonyl)piperidin-4-yl)methyl)piperazin-1-yl)methyl)phenyl)-5-(5-ethyl-4-hydroxy-2-methoxyphenyl)-N-(1,1,1-trifluoropropan-2-yl)-4H-1,2,4-triazole-3-carboxamide], on MAPK7 [6], the IC50 is 0.1 to 1 µM.

A word on the IC50: it is the concentration that gives 50% inhibition. Read a high IC50 as a need for much substance.
